Assay results reported in patent EP4745134A1 (Jiangsu Yahong Meditech Co., Ltd., priority 2023, dated 2025).
Like-named read-outs stand apart in the source and are kept apart here.

Key:
PRMT5-MTA = PRMT5-MTA (Homo sapiens, UniProt O14744); assay: Enzymatic inhibitory activity against PRMT5-MTA (AlphaScreen); type: biochemical
Procedure, shortened: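 PRMT5/[…] (1 nM) was preincubated for 30 min at room temperature with 1 µM […] and 2.5 µM SAM, then exposed to compound (10-point, 3-fold from 1000 nM) for 15 min at 23 °C. Histone H4 substrate (5 nM) was added and reacted for 45 min at 23 °C. Symmetric dimethyl-R3 H4 was detected by AlphaScreen and IC50 calculated.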

HCT116 MTAP KO cells = assay: Inhibitory activity against cell proliferation (CellTiter Glo, 6 days), HCT116 MTAP KO; type: cell-based; settings: for IC50: Homo sapiens, HCT-116, 144 h, HCT116 MTAP KO cells, 6 days, CellTiter Glo, read-out: HCT116 MTAP KO IC50; for Selectivity HCT 116-WT/ HCT116 MTAP KO: ratio of IC50 HCT116-WT / HCT116 MTAP KO
Procedure, shortened: (§1)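 Following overnight attachment of 250 cells per well in McCoy's 5A medium with 10% FBS, compounds spanning 8 concentrations (4-fold, top 10000 nM) were applied for 6 days. Growth inhibition IC50 was derived from luminescent ATP signal.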

HCT116-WT cells = assay: Inhibitory activity against cell proliferation (CellTiter Glo, 6 days), HCT116-WT; type: cell-based; settings: 144 h, HCT116-WT cells, 6 days, CellTiter Glo; read-out: HCT116-WT IC50
Procedure, shortened: as §1

PRMT5-MTA, sequence (O14744 whole entry): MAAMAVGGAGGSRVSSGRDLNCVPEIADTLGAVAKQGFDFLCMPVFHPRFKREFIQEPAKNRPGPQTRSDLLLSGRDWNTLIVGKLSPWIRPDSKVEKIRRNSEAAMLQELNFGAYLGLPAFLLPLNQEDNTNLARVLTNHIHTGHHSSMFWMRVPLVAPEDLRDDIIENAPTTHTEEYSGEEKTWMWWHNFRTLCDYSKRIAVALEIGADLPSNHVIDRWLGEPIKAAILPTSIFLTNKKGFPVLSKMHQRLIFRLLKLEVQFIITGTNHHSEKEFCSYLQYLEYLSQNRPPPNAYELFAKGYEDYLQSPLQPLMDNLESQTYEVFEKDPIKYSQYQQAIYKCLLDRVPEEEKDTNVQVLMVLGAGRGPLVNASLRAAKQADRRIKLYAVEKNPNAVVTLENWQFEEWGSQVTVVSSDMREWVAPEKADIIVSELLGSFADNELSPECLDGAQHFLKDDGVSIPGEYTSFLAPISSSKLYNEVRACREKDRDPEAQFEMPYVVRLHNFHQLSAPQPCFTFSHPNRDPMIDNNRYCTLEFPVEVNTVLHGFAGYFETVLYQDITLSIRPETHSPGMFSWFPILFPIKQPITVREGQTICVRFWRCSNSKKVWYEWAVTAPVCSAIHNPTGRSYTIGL
PRMT5-MTA, sequence (Q9BQA1 whole entry partner): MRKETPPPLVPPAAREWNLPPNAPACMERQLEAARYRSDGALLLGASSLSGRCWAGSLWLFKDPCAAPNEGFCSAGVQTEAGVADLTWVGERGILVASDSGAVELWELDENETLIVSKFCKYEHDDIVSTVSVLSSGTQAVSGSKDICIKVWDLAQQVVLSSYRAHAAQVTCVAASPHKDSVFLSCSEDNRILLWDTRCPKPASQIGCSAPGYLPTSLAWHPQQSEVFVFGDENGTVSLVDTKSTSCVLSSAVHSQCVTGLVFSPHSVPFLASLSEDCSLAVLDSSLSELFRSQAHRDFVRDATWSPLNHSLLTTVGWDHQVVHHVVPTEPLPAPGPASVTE

Cc1cc2cc(C(=O)N(Cc3ccc(-c4ccc(=O)n(C)c4)cn3)N(C)c3ncccn3)ccc2nc1N [Example 155, 2-amino-N',3-dimethyl-N-((1'-methyl-6'-oxo-1',6'-dihydro-[3,3'-bipyridine]-6-yl)methyl)-N'-(pyrimidin-2-yl)quinoline-6-car bohydrazide]
IC50 (PRMT5-MTA; read-out: IC50): 2.3 nM
IC50 (HCT116 MTAP KO cells): 42 nM
Selectivity HCT 116-WT/ HCT116 MTAP KO (HCT116 MTAP KO cells): 30.00
IC50 (HCT116-WT cells): 1260 nM

Cc1cc2cc(C(=O)N(Cc3ccc(C(F)(F)F)cn3)N(C)c3ccccc3F)ccc2nc1N [Example 111, 2-amino-N'-(2-fluorophenyl)-N',3-dimethyl-N-((5-(trifluoromethyl)pyridin-2-yl)methyl)quinoline-6-carbohydrazide]
IC50 (PRMT5-MTA; read-out: IC50): 1.7 nM
IC50 (HCT116 MTAP KO cells): 38 nM
Selectivity HCT 116-WT/ HCT116 MTAP KO (HCT116 MTAP KO cells): 27.47
IC50 (HCT116-WT cells): 1040 nM

Cn1ncc2c(N)nc3cc(Cl)c(C(=O)N4CC(F)(F)CN4c4cccc(F)c4F)cc3c21 [Example 461, (4-amino-7-chloro-1-methyl-1H-pyrazolo [4,3-c]quinolin-8-yl)(2-(2,3-difluorophenyl)-4,4-difluoropyrazolidin-1-yl)methanone]
IC50 (PRMT5-MTA; read-out: IC50): 6.8 nM
IC50 (HCT116 MTAP KO cells): 15 nM
Selectivity HCT 116-WT/ HCT116 MTAP KO (HCT116 MTAP KO cells): 19.67
IC50 (HCT116-WT cells): 295 nM

Cc1cc2nc(N)c3cnn(C)c3c2cc1C(=O)N1CC2(CN1c1ncccc1F)CC(F)(F)C2 [Example 410, (4-amino-1,7-dimethyl-1H-pyrazolo[4,3-c]quinolin-8-yl)(2,2-difluoro-7-(3-fluoropyridin-2-yl)-6,7-diazaspiro[3.4]octan-6-yl)methanone]
IC50 (PRMT5-MTA; read-out: IC50): 5.2 nM
IC50 (HCT116 MTAP KO cells): 9 nM
Selectivity HCT 116-WT/ HCT116 MTAP KO (HCT116 MTAP KO cells): 24.33
IC50 (HCT116-WT cells): 219 nM

COC1CN(C(=O)c2cc3c(cc2C)nc(N)c2cnn(C)c23)N(c2cc(F)ccc2F)C1 (centres unmarked) [Example 445, (4-amino-1,7-dimethyl-1H-pyrazolo[4,3-c]quinolin-8-yl)(2-(2,5-difluorophenyl)-4-methoxypyrazolidin-1-yl)methanone]
IC50 (PRMT5-MTA; read-out: IC50): 6.4 nM
IC50 (HCT116 MTAP KO cells): 22 nM
Selectivity HCT 116-WT/ HCT116 MTAP KO (HCT116 MTAP KO cells): 24.91
IC50 (HCT116-WT cells): 548 nM

Cc1cc2cc(C(=O)N(Cc3ccc(C(F)(F)F)cn3)N(C)c3ncc(C#N)cn3)ccc2nc1N [Example 58, 2-amino-N'-(5-cyanopyrimidin-2-yl)-N',3-dimethyl-N-((5-(trifluoromethyl)pyridin-2-yl)methyl)quinoline-6-carbohydrazide]
IC50 (PRMT5-MTA; read-out: IC50): 4 nM
IC50 (HCT116 MTAP KO cells): 210 nM
Selectivity HCT 116-WT/ HCT116 MTAP KO (HCT116 MTAP KO cells): 14.92
IC50 (HCT116-WT cells): 3130 nM

Cc1cc2nc(N)c3cnn(C)c3c2cc1C(=O)N1CC(C)CN1c1c(F)cccc1F (centres unmarked) [Example 400, (4-amino-1,7-dimethyl-1H-pyrazolo[4,3-c]quinolin-8-yl)(2-(2,6-difluorophenyl)-4-methylpyrazolidin-1-yl)methanone]
IC50 (PRMT5-MTA; read-out: IC50): 5.8 nM
IC50 (HCT116 MTAP KO cells): 33 nM
Selectivity HCT 116-WT/ HCT116 MTAP KO (HCT116 MTAP KO cells): 56.79
IC50 (HCT116-WT cells): 1870 nM

C=Cc1cc2cc(C(=O)N(Cc3ccc(C(F)(F)F)cn3)N(C)c3ncccn3)ccc2nc1N [Example 304, 2-amino-N'-methyl-N'-(pyrimidin-2-yl)-N-((5-(trifluoromethyl)pyridin-2-yl)methyl)-3-v inylquinoline-6-carbohydrazide]
IC50 (PRMT5-MTA; read-out: IC50): 3.9 nM
IC50 (HCT116 MTAP KO cells): 204 nM
Selectivity HCT 116-WT/ HCT116 MTAP KO (HCT116 MTAP KO cells): 17.81
IC50 (HCT116-WT cells): 3630 nM

Cc1cc2cc(C(=O)N(Cc3ccc(C(F)(F)F)cn3)N(C)c3ncc(F)cn3)ccc2nc1N [Example 95, 2-amino-N'-(5-fluoropyrimidin-2-yl)-N',3-dimethyl-N-((5-(trifluoromethyl)pyridin-2-yl)methyl)quinoline-6-carbohydrazide]
IC50 (PRMT5-MTA; read-out: IC50): 2.1 nM
IC50 (HCT116 MTAP KO cells): 70 nM
Selectivity HCT 116-WT/ HCT116 MTAP KO (HCT116 MTAP KO cells): 35.14
IC50 (HCT116-WT cells): 2460 nM

Cc1cc2cc(C(=O)N(Cc3ccc(C(F)(F)F)cn3)N(C)c3ncc4cc[nH]c4n3)ccc2nc1N [Example 119, 2-amino-N',3-dimethyl-N'-(7H-pyrrolo[2,3-d]pyrimidin-2-yl)-N-((5-(trifluoromethyl)pyridin-2-yl)methyl)quinoline-6-carbohydrazide]
IC50 (PRMT5-MTA; read-out: IC50): 2.3 nM
IC50 (HCT116 MTAP KO cells): 90 nM
Selectivity HCT 116-WT/ HCT116 MTAP KO (HCT116 MTAP KO cells): 20.13
IC50 (HCT116-WT cells): 1810 nM

[2H]C([2H])([2H])OC1CN(C(=O)c2cc3c(cc2C)nc(N)c2cnn(C)c23)N(c2ncccc2F)C1 (centres unmarked) [Example 454, (4-amino-1,7-dimethyl-1H-pyrazolo[4,3-c]quinolin-8-yl)(2-(3-fluoropyridin-2-yl)-4-(methoxy-D3)pyrazolidin-1-yl)methanone]
IC50 (PRMT5-MTA; read-out: IC50): 5.9 nM
IC50 (HCT116 MTAP KO cells): 36 nM
Selectivity HCT 116-WT/ HCT116 MTAP KO (HCT116 MTAP KO cells): 20.89
IC50 (HCT116-WT cells): 752 nM

CCN(c1ncccn1)N(Cc1ccc(C(F)(F)F)cn1)C(=O)c1ccc2nc(N)c(C)cc2c1 [Example 6, 2-amino-N'-ethyl-3-methyl-N'-(pyrimidin-2-yl)-N-((5-(trifluoromethyl)pyridin-2-yl)methyl)quinoline-6-carbohydrazide]
IC50 (PRMT5-MTA; read-out: IC50): 1.5 nM
IC50 (HCT116 MTAP KO cells): 95 nM
Selectivity HCT 116-WT/ HCT116 MTAP KO (HCT116 MTAP KO cells): 14.55
IC50 (HCT116-WT cells): 1380 nM

Cc1cc2cc(C(=O)N(Cc3ccc(C(F)(F)F)nn3)N(C)c3ncccn3)ccc2nc1N [Example 124, 2-amino-N',3-dimethyl-N'-(pyrimidin-2-yl)-N-((6-(trifluoromethyl)pyridazin-3-yl)methyl)quinoline-6-carbohydrazide]
IC50 (PRMT5-MTA; read-out: IC50): 5.4 nM
IC50 (HCT116 MTAP KO cells): 220 nM
Selectivity HCT 116-WT/ HCT116 MTAP KO (HCT116 MTAP KO cells): 29.33
IC50 (HCT116-WT cells): 6450 nM

Cc1cc2nc(N)c3cnn(C)c3c2cc1C(=O)N1CC(C)CN1c1ccccc1C(F)(F)F (centres unmarked) [Example 378, (4-amino-1,7-dimethyl-1H-pyrazolo[4,3-c]quinolin-8-yl)(4-methyl-2-(2-(trifluoromethyl)phenyl)pyrazolidin-1-yl)methanone]
IC50 (PRMT5-MTA; read-out: IC50): 6.6 nM
IC50 (HCT116 MTAP KO cells): 316 nM
Selectivity HCT 116-WT/ HCT116 MTAP KO (HCT116 MTAP KO cells): 21.39
IC50 (HCT116-WT cells): 6760 nM

Cc1cc2nc(N)c3cnn(C)c3c2cc1C(=O)N1CC(C)CN1c1cccc(Cl)c1F (centres unmarked) [Example 383, (4-amino-1,7-dimethyl-1H-pyrazolo[4,3-c]quinolin-8-yl)(2-(3-chloro-2-fluorophenyl)-4-methylpyrazolidin-1-yl)methanone]
IC50 (PRMT5-MTA; read-out: IC50): 6 nM
IC50 (HCT116 MTAP KO cells): 50 nM
Selectivity HCT 116-WT/ HCT116 MTAP KO (HCT116 MTAP KO cells): 35.34
IC50 (HCT116-WT cells): 1770 nM

Cn1ncc2c(N)nc3cc(Cl)c(C(=O)N4CC5(CN4c4ncc(Cl)cc4F)CC(F)(F)C5)cc3c21 [Example 412, (4-amino-7-chloro-1-methyl-1H-pyrazolo [4,3-c]quinolin-8-yl)(7-(5-chloro-3-fluoropyridin-2-yl)-2,2-difluoro-6,7-diazaspiro[3.4]octan-6-yl)methanone]
IC50 (PRMT5-MTA; read-out: IC50): 6.2 nM
IC50 (HCT116 MTAP KO cells): 10 nM
Selectivity HCT 116-WT/ HCT116 MTAP KO (HCT116 MTAP KO cells): 17.90
IC50 (HCT116-WT cells): 179 nM

Cn1ncc2c(N)nc3cc(Cl)c(C(=O)N4CC(C)(F)CN4c4ccccc4F)cc3c21 (centres unmarked) [Example 419]
IC50 (PRMT5-MTA): 4.6 nM
IC50 (HCT116 MTAP KO cells): 14 nM
Selectivity HCT 116-WT/ HCT116 MTAP KO (HCT116 MTAP KO cells): 16.14
IC50 (HCT116-WT cells): 226 nM

CCC1(F)CN(C(=O)c2cc3c(cc2C)nc(N)c2cnn(C)c23)N(c2ncccc2F)C1 (centres unmarked) [Example 423, (4-amino-1,7-dimethyl-1H-pyrazolo[4,3-c]quinolin-8-yl)(4-ethyl-4-fluoro-2-(3-fluoropyridin-2-yl)pyrazolidin-1-yl)methanone]
IC50 (PRMT5-MTA; read-out: IC50): 6.7 nM
IC50 (HCT116 MTAP KO cells): 25 nM
Selectivity HCT 116-WT/ HCT116 MTAP KO (HCT116 MTAP KO cells): 27.28
IC50 (HCT116-WT cells): 682 nM

Cc1cc2nc(N)c3cnn(C)c3c2cc1C(=O)N1CC(C)CN1c1ccc(F)cn1 (centres unmarked) [Example 346, (4-amino-1,7-dimethyl-1H-pyrazolo[4,3-c]quinolin-8-yl)(2-(5-fluoropyridin-2-yl)-4-methylpyrazolidin-1-yl)methanone]
IC50 (PRMT5-MTA; read-out: IC50): 3.6 nM
IC50 (HCT116 MTAP KO cells): 53 nM
Selectivity HCT 116-WT/ HCT116 MTAP KO (HCT116 MTAP KO cells): 41.25
IC50 (HCT116-WT cells): 2190 nM

Cc1cc2nc(N)c3cnn(C)c3c2cc1C(=O)N1CC(C)CN1c1ccc(F)cc1F (centres unmarked) [Example 381, (4-amino-1,7-dimethyl-1H-pyrazolo[4,3-c]quinolin-8-yl)(2-(2,4-difluorophenyl)-4-methylpyrazolidin-1-yl)methanone]
IC50 (PRMT5-MTA; read-out: IC50): 4 nM
IC50 (HCT116 MTAP KO cells): 63 nM
Selectivity HCT 116-WT/ HCT116 MTAP KO (HCT116 MTAP KO cells): 36.92
IC50 (HCT116-WT cells): 2330 nM

[2H]C([2H])([2H])N(c1ncccn1)N(Cc1ccc(Br)cn1)C(=O)c1ccc2nc(N)c(C)cc2c1 [Example 64, 2-amino-N-((5-bromopyridin-2-yl)methyl)-3-methyl-N'-(methyl-d3)-N'-(pyrimidin-2-yl)quinoline-6-carbohydrazide]
IC50 (PRMT5-MTA; read-out: IC50): 1.7 nM
IC50 (HCT116 MTAP KO cells): 38 nM
Selectivity HCT 116-WT/ HCT116 MTAP KO (HCT116 MTAP KO cells): 24.16
IC50 (HCT116-WT cells): 918 nM

Cc1cc2cc(C(=O)N(Cc3ccc(C(F)(F)F)cn3)N(C)c3cccc(C(F)(F)F)n3)ccc2nc1N [Example 88, 2-amino-N',3-dimethyl-N'-(6-(trifluoromethyl)pyridin-2-yl)-N-((5-(trifluoromethyl)pyridin-2-yl)methyl)quinoline-6-carbohydrazide]
IC50 (PRMT5-MTA; read-out: IC50): 2.5 nM
IC50 (HCT116 MTAP KO cells): 176 nM
Selectivity HCT 116-WT/ HCT116 MTAP KO (HCT116 MTAP KO cells): 11.56
IC50 (HCT116-WT cells): 2030 nM

Cc1cc2nc(N)c3cnn(C)c3c2cc1C(=O)N1CC(C)CN1c1ncccc1F (centres unmarked) [Example 328, (4-amino-1,7-dimethyl-1H-pyrazolo[4,3-c]quinolin-8-yl)(2-(3-fluoropyridin-2-yl)-4-methylpyrazolidin-1-yl)methanone]
IC50 (PRMT5-MTA; read-out: IC50): 6.5 nM
IC50 (HCT116 MTAP KO cells): 38 nM
Selectivity HCT 116-WT/ HCT116 MTAP KO (HCT116 MTAP KO cells): 61.63
IC50 (HCT116-WT cells): 2340 nM
